Assay: Tested for anti-platelet activity by turbidimetric method using thrombin as agonist in washed platelet
Type: functional

SMILES | IC50
COC(=O)C(=Cc1cc(=O)[nH]nc1-c1ccccc1)C(=O)OC | 45 µM
CCOC(=O)C(=Cc1cc(=O)[nH]nc1-c1ccccc1)C(=O)OCC | 20 µM
COC(=O)/C(=C/c1cc(O)nnc1-c1ccccc1)C(C)=O | 25 µM
O=C1C(CC[S+]([O-])c2ccccc2)C(=O)N(c2ccccc2)N1c1ccccc1 (stereo not given) [SULFINPYRAZONE] | 696 µM
Clc1ccccc1CN1CCc2sccc2C1 [TICLOPIDINE] | 1550 µM
